These results are taken from PMC11784183, “Identification of an antibiotic from an HTS targeting EF-Tu:tRNA interaction: a prospective topical treatment for MRSA skin infections” (Applied and Environmental Microbiology, 2024).

The test system of this test is S. aureus USA300 subcutaneous infection. The test is described as follows: Mouse skin infection model, topical ointment. It counts as in vivo, mice. Particulars: topical ointment daily.

Each structure is given as a SMILES string.

`C/C(=C\C(=O)OCCCCCCCCC(=O)O)C[C@@H]1OC[C@H](C[C@@H]2O[C@H]2[C@@H](C)[C@H](C)O)[C@@H](O)[C@H]1O` [mupirocin, reference compound]: under “5 days, vs untreated control (ointment without drug)”, the “dermonecrosis as a result of S. aureus infection (area over time)” value is recorded as “not having a significant effect on dermonecrosis”. Where the note is “day 5, vs untreated control”, the “bacterial burden in punch biopsies” value is recorded as “significantly reduced the bacterial burden”.
